Reference: ChEMBL document CHEMBL1141327, “Planktocyclin, a cyclooctapeptide protease inhibitor produced by the freshwater cyanobacterium Planktothrix rubescens” (J Nat Prod, 2007)
pIC50: −log10 of the molar value. Peptide text beside a SMILES is read from it.

Key:
[1] = Inhibition of porcine trypsin; design: species or system Sus scrofa
Caspase-8 = Caspase-8 (Homo sapiens, UniProt Q14790); assay: Inhibition of human recombinant caspase 8 expressed in Escherichia coli
Cathepsin B = Cathepsin B (Bos taurus, UniProt P07688); assay: Inhibition of bovine Cathepsin B
[2] = Inhibition of bovine alpha chymotrypsin; design: species or system Bos taurus

Sequence of Caspase-8 (Q14790 217-374 limits assumed): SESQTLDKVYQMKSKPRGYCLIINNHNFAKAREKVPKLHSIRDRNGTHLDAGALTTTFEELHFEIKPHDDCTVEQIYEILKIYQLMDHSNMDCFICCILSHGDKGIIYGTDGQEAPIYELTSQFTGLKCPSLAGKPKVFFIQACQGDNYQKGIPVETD
Sequence of Caspase-8 (Q14790 385-479 limits assumed): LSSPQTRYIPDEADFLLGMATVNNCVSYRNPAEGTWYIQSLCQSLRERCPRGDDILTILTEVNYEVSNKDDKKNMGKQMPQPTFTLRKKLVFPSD

## CSCC[C@@H]1NC(=O)[C@H](C(C)C)NC(=O)[C@H](CC(C)C)NC(=O)CNC(=O)[C@@H]2CCCN2C(=O)[C@H](C(C)C)NC(=O)CNC(=O)[C@H](Cc2ccccc2)NC1=O [PLANKTOCYCLIN] (cyclo(FGVPGLVM))
[1]
  pIC50: 6.98
Caspase-8
  pIC50: 4.03
Cathepsin B
  pIC50: < 3.30
[2]
  pIC50: 5.00
